The subject of one series is mice. Put plainly: in vivo. The class given is in vivo. An excerpt: (§1) The acute toxicity after a single administration of the products per os was studied in mice.
(§2) The compounds were placed in suspension in a mixture of Tween 80™ and distilled water. […] Exper.

Another series can be described thus: in vivo. Type of series: in vivo. The following applies: mouse, in vivo, po; mice, per os, single administration, 7 days.
Source text: as §1, §2

Series [1] relates to Delayed Hypersensitivity Pleurisy to Bordetella pertussis. The experiment in a line: Pleurisy of delayed hypersensitivity to Bordetella pertussis in rats after chronic treatment. The class given is in vivo. The conditions noted are these: for Action on the volume of exudate / Action on the number of mononuclears / Action on the number of polynuclears / Action on the total number of leukocytes: 5 mg/kg p.o.; for Delayed hypersensitivity pleural inflammation (in words) / Action compared with levamisole (in words): orally, chronic treatment, 5 mg/kg/administration; for Action compared with levamisole (in words): both treatment procedures. On the procedure:
II--Action on Pleurisy of Delayed Hypersensitivity to Bordetella pertussis in Rats After Chronic Treatment […]
Male rats weighing 280-320 g are used. The suspension of Bordetella pertussis used is the pertussis vaccine of the Pasteur Institute (5×10^9 killed bacilli per ml). The Bordetella pertussis suspension is mixed (V/V: 50/50) with Freund's complete adjuvant. 0.2 ml of this mixture is injected intramuscularly into each thigh of the rat.
6 days later, 0.1 ml of the Bordetella pertussis suspension is injected into the pleural cavity. 48 hours later, the pleural exudate formed is removed and measured. The total number of leukocytes and the number of mononuclears and polynuclears of the exudate are determined.
The products studied were administered chronically in accordance with two procedures:
Procedure 1: The treatment commences on the day of the sensitization and continues at the rate of one administration per day until the challenge injection. On the day of the latter the compounds are given twice: one administration before and one after the intrapleural injection of the antigen. The animals are treated a last time 24 hours later.
Procedure 2: The treatment commences three weeks before the sensitization. During these three weeks, the products are given at the rate of 5 times per week. The treatment is then continued as indicated above in Procedure 1.

Series [2] relates to cutaneous delayed hypersensitivity reaction to PPD. Type of series: in vivo, albino guinea pigs.
Series [3] in a line: Chronic toxicity per os for two months in rats. The following applies: rat, in vivo, po, read-out: Dose not resulting in any toxic phenomenon.
Setting [4] is: 200 mg/kg per os, 5 mice per lot.
[5] abbreviates: 1000 mg/kg per os, 5 mice per lot.

Where “and” joins values, the source holds several entries; their conditions need not be identical. Equal entries are not always repeated. Entries after “also recorded” stand apart in the source; their conditions may differ. Where two headings read alike, the source gives them in different places.

The LD50 is the dose at which mortality reaches 50%. `Nc1nc(-c2ccccc2)cs1` [F 1653, 4-phenyl 2-amino thiazole]: in “Solubility” (dimethyl pyrrolidone), the “Solubility in dimethyl pyrrolidone” value is on record as 20%. For the same molecule, in the series “Solubility”, the Solubility in ethanol turned out to be 1% and the Solubility in water result is on record as “insoluble”. The “Mortality at the end of 7 days” value with mice (100 mg/kg per os, 5 mice per lot) turned out to be 0. Moreover, the “Mortality at the end of 7 days” value with mice (setting [4]) is on record as 5. In “in vivo”, the LD50 at 168 h worked out at 140 mg/kg.

Take `Nc1nc(-c2ccc(Cl)cc2)cs1` [F 1654, 4-Parachloro-phenyl 2-amino thiazole]: in the series “Solubility”, the Solubility in ethanol is given as 15% and the Solubility in water result is reported as “insoluble”. The “Action on the volume of exudate” value in series [1] (Treatment procedure 2) was -41%. In series [1], the “Delayed hypersensitivity pleural inflammation (in words)” value is “reduce the delayed hypersensitivity pleural inflammation” and the “Action compared with levamisole (in words)” value is recorded as “superior to that of levamisole”. Moreover, the “Mortality at the end of 7 days” value in the series on mice (setting [4]) was found to be 0. Besides, the “Mortality at the end of 7 days” value in the series with mice (300 mg/kg per os, 5 mice per lot) was found to be 3. The “Mortality at the end of 7 days” value in the series with mice (500 mg/kg per os, 5 mice per lot) is 5. The molecule further showed an LD50 at 168 h in the series “in vivo” of 300 mg/kg.

On to `CCCCCCCCCCCC(=O)Nc1nc(-c2ccccc2)cs1` [F 1655], for which, in the series “Solubility”, the “Solubility in DMA” value turned out to be 25%, the “Solubility in methyl pyrrolidone” value turned out to be 25% and the Solubility in water result was “insoluble”. The “Mortality at the end of 7 days” value with mice (setting [5]) worked out at 0. Further, the LD50 at 168 h in “in vivo” was greater than 1000 mg/kg.

On to `CCCCCCCCCCCCCCCCCC(=O)Nc1nc(-c2ccccc2)cs1` [F 1656, 4-phenyl 2-stearamido thiazole], for which, in the series “Solubility”, the “Solubility in DMA” value was 20%, the “Solubility in methyl pyrrolidone” value came out at 20% and the Solubility in water result is given as “insoluble”. For the same molecule, the “Mortality at the end of 7 days” value in the series with mice (setting [5]) turned out to be 0. The 50% lethal dose (LD50) at 168 h in the series “in vivo” was greater than 1000 mg/kg.

On to `O=C(O)CCC(=O)Nc1nc(-c2ccccc2)cs1` [F 1657, N(4-phenyl 2-thiazolyl) succinamic acid], for which, in “Solubility”, the “Solubility in DMA” value is given as 20%, the “Solubility in methyl pyrrolidone” value is on record as 25% and the Solubility in water entry is recorded as “insoluble”. For the same molecule, in the series with mice (setting [5]), the “Mortality at the end of 7 days” value is on record as 0. The molecule also registered an LD50 at 168 h in “in vivo” greater than 1000 mg/kg.

On to `CCOC(=O)Nc1nc(-c2ccccc2)cs1` [F 1658, 4-phenyl 2-(ethoxycarboxamido) thiazole], for which, in the series “Solubility”, the “Solubility in DMA” value turned out to be 25%, the “Solubility in methyl pyrrolidone” value came out at 25% and the Solubility in water entry is “insoluble”.

Regarding `O=C(Nc1nc(-c2ccccc2)cs1)Oc1ccccc1` [F 1659, 4-phenyl 2-phenoxy carbamoyl thiazole], in “Solubility”, the “Solubility in DMA” value is on record as 4%, the “Solubility in methyl pyrrolidone” value is reported as 3% and the Solubility in water result is given as “insoluble”. For the same molecule, the “Mortality at the end of 7 days” value with mice (setting [5]) came to 0. In “in vivo”, this molecule returned an LD50 at 168 h greater than 1000 mg/kg.

As for `O=C(Nc1nc(-c2ccc(Cl)cc2)cs1)OCC(Cl)(Cl)Cl` [F 1660, 4-parachlorophenyl 2-(2'-2'-2'-trichloroethoxycarbamido) thiazole], in “Solubility”, the “Solubility in DMA” value was found to be 20%, the “Solubility in methyl pyrrolidone” value was found to be 20% and the Solubility in water entry is listed as “insoluble”. Also, the “Mortality at the end of 7 days” value with mice (setting [5]) is 0. In the series “in vivo”, this molecule showed an LD50 at 168 h greater than 1000 mg/kg.

Regarding `O=C(O)CCC(=O)Nc1nc(-c2ccc(Cl)cc2)cs1` [F 1683, N(4-parachlorophenyl 2-thiazolyl) succinamic acid], in “Solubility”, the “Solubility in DMA” value is given as 20%, the “Solubility in methyl pyrrolidone” value is recorded as 20% and the Solubility in water result is “insoluble”. The “Mortality at the end of 7 days” value in the series on mice (setting [5]) amounted to 0. Also, in “in vivo”, the 50% lethal dose (LD50) at 168 h is greater than 1000 mg/kg.

`O=C(Nc1nc(-c2ccccc2)cs1)c1cccnc1` [F 1684, N(4-phenyl 2-thiazolyl) nicotinamide]: in the series “Solubility”, the “Solubility in DMA” value was 5%, the “Solubility in methyl pyrrolidone” value stood at 5% and the Solubility in water result is on record as “insoluble”. Also, the “Mortality at the end of 7 days” value with mice (setting [5]) is reported as 0. Besides, in the series “in vivo”, the 50% lethal dose (LD50) at 168 h is greater than 1000 mg/kg.

In the case of `O=C(Nc1nc(-c2ccc(Cl)cc2)cs1)c1cccnc1` [F 1685, N(4-parachlorophenyl 2-thiazolyl) nicotinamide], in “Solubility”, the “Solubility in DMA” value was 20%, the “Solubility in methyl pyrrolidone” value is reported as 20% and the Solubility in water result is listed as “insoluble”. Moreover, in the series on mice (setting [5]), the “Mortality at the end of 7 days” value was 0. In the series “in vivo”, the LD50 at 168 h was greater than 1000 mg/kg.

Take `O=C(Nc1nc(-c2ccccc2)cs1)OCC(Cl)(Cl)Cl` [F 1686, 4-phenyl-2-(2'-2'-2'-trichloroethoxycarboxamido) thiazole]: in “Solubility”, the “Solubility in DMA” value stood at 25%, the Solubility in ethanol is 3%, the “Solubility in methyl pyrrolidone” value was 20% and the Solubility in water entry is recorded as “insoluble”. For the same molecule, in series [1] (Treatment procedure 1), the “Action on the number of mononuclears” value is given as -21%, the “Action on the number of polynuclears” value is on record as -16%, the “Action on the total number of leukocytes” value is -19% and the “Action on the volume of exudate” value is reported as -35%. Further, in series [1] (Treatment procedure 2), the “Action on the number of mononuclears” value is -29%, the “Action on the number of polynuclears” value is given as -6% and the “Action on the total number of leukocytes” value was -22%. For the same molecule, the “Action on the volume of exudate” value in series [1] (Treatment procedure 2, 5 mg/kg) is -50% and -42%. Also, in series [1], the “Delayed hypersensitivity pleural inflammation (in words)” value is recorded as “reduce the delayed hypersensitivity pleural inflammation” and the “Action compared with levamisole (in words)” value is given as “superior to that of levamisole”. Moreover, in the series on mice (1000 mg/kg per os, 10 mice per lot), the “Mortality at the end of 7 days” value is 0. This molecule displayed an LD50 at 168 h in the series “in vivo” greater than 1000 mg/kg. In addition, in series [2] ([…], response of low intensity in controls (two to three weeks)), the “Effect on the response to PPD (in words)” value was “stimulate the response”. Also, the “Effect on the response to PPD (in words)” value in series [2] (after 5 and 6 weeks) is “do not modify it significantly any longer”. In addition, the “Stimulation of the reaction to the PPD (in words)” value in series [2] (dependence on immune state) is “does not stimulate the reaction to the PPD except when the guinea pigs are in a state of hypoimmunization”. The NOAEL at 1460 h in series [3] was no more than 30 mg/kg/day.

Turning to `O=C(Nc1nc(-c2ccc(Cl)cc2)cs1)Oc1ccccc1` [F 1687], in the series “Solubility”, the “Solubility in DMA” value is 5%, the “Solubility in methyl pyrrolidone” value is reported as 5% and the Solubility in water result is reported as “insoluble”. In addition, the “Mortality at the end of 7 days” value with mice (setting [5]) is given as 0. Besides, the LD50 at 168 h in the series “in vivo” was greater than 1000 mg/kg.

Consider `c1ccc([C@H]2CN3CCSC3=N2)cc1` [Levamisole, L-tetramisole, reference compound], for which, in series [1] (Treatment procedure 1), the “Action on the number of mononuclears” value is given as -11%, the “Action on the number of polynuclears” value is -9%, the “Action on the total number of leukocytes” value is recorded as -10% and the “Action on the volume of exudate” value is -22%. Moreover, in series [1] (Treatment procedure 2), the “Action on the number of mononuclears” value is -17%, the “Action on the number of polynuclears” value is given as -7%, the “Action on the total number of leukocytes” value is recorded as -13% and the “Action on the volume of exudate” value is recorded as -23%. In series [2] (guinea pig, in vivo), the “Effect on the response to PPD (in words)” value is listed as “to a definitely lesser degree stimulate the response; also recorded: do not modify it significantly any longer”.

Values taken from patent publication US4225610A, “Immunoactivators derived from amino thiazoles” (Pierre Fabre, S.A., priority 1977, dated 1980).
